Source: BindingDB's records for patent US20240025919 (Genentech, 2024)

Key:
GTPase KRas [G12D] = GTPase KRas [G12D] (Homo sapiens, UniProt P01116, G12D); test: KRAS G12D LoEnz Biochemical Assay
Method: Biochemical compound potencies are assessed by evaluating inhibition of SOS1I-mediated nucleotide exchange in KRAS […]. In this assay, the SOS1-promoted exchange of fluorescently-labeled GDP (BOPIDY-GDP) is monitored by time-resolved fluorescence resonance energy transfer (TR-FRET). Compounds solubilized in DMS0 are dispensed as concentration series into 384-well white assay plates. A preformed complex of biotin-tagged recombinant human KRAS (0.06 nM mutant G1 2D) and 0.06 nM terbium-labeled streptavidin (CisBIO) prepared in 10 uL/well assay buffer (20 mM HEPES, pH 7.5, 50 mM NaCl, 10 mMMMgCl2, 0.0100 Tween-20 and 1 mM dithiothreitol) is added and allowed to incubate for 10-minutes at room temperature. The reaction is initiated with the addition of 5 uL 300 nM recombinant human SOS1 and 300 nM BODIPY-GDP in assay buffer. After a 120-minute incubation, the fluorescence is measured with excitation at 337 nm and emission at 490 and 520 nm. The TR-FRET ratio is determined as the fluorescence at 520 nm divided by the fluorescence at 490 nm multiplied by 10,000. The results are normalized to percent inhibition based on control samples: DMSO (0% inhibition) and control compound at a concentration that inhibits completely (100% inhibition).

GTPase KRas = GTPase KRas (Homo sapiens, UniProt P01116); test: KRAS WT Biochemical Assay
Chain of GTPase KRas (P01116 whole entry): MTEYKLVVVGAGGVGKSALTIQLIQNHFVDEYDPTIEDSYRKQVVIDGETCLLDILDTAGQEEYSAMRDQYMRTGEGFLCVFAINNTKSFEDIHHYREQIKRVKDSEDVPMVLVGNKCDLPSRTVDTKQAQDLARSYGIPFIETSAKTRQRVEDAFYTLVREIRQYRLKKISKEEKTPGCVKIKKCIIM
Method: Biochemical compound potencies are assessed by evaluating inhibition of SOS1-mediated nucleotide exchange in KRAS WT. In this assay, the SOS1-promoted exchange of fluorescently-labeled GDP (BOPIDY-GDP) is monitored by time-resolved fluorescence resonance energy transfer (TR-FRET). Compounds solubilized in DMSO are dispensed as concentration series into 384-well white assay plates. A preformed complex of 0.06 nM biotin-tagged recombinant human KRAS WT, 15 nM GDP and 0.06 nM terbium-labeled streptavidin (CisBIO) prepared in 10 uL/well assay buffer (20 mM HEPES, pH 7.5, 50 mM NaCl, 10 mM MgCl2, 0.01% Tween-20 and 1 mM dithiothreitol) is added and allowed to incubate for 10-minutes at room temperature. The reaction is initiated with the addition of 5 uL 300 nM recombinant human SOS1 and 300 nM BODIPY-GDP in assay buffer. After a 120-minute incubation, the fluorescence is measured with excitation at 337 nm and emission at 490 and 520 nm.

Chain of GTPase KRas [G12D] (P01116 whole entry G12D): as the sequence (P01116 whole entry) above, with G12D counted along it

SMILES	IC50 (GTPase KRas [G12D])	IC50 (GTPase KRas)
C#Cc1c(F)ccc2cccc(-c3nc4c5c(nc(OCC67CCN6CC(F)(F)C7)nc5c3F)N3C[C@H]5CC[C@H](N5)[C@H]3[C@H](C)O4)c12 (some centres undefined) [US20240025919, Compound 22]	2.99 nM	
Fc1c(-c2cccc3cccc(Cl)c23)nc2c3c(nc(OC[C@@]45CCCN4C[C@H](F)C5)nc13)N1C[C@H]3CC[C@H](N3)[C@H]1CO2 [US20240025919, Compound 2]	15.2 nM	922 nM
C[C@@H]1Oc2nc(-c3cc(N)c(F)c(F)c3CC(F)F)c(F)c3cc(OC[C@@H]4CC[C@H]5COCCN54)nc(c23)N2C[C@H]3CC[C@H](N3)[C@@H]12 [US20240025919, Compound 158]	3.39 nM	
